{"source": "patent US10265286B2", "about": "“Sequelae of cardiopulmonary bypass-induced pulmonary injury” (Vanderbilt University, priority 2016, dated 2019)", "key": {"[1]": {"assay": "Phase IB study: vasoactive medications", "format": "in vivo, human", "method": "The total number of hours on vasoactive medications, including nitroglycerin, nitroprusside and vasopressin, was calculated from the end of surgery until the discontinuation of vasoactive medications or end of study medication (Hour 48), whichever occurred first. Table 14 compares the length of time on vasoactive medications for the citrulline and placebo treatment groups. The overall duration of concomitant vasoactive treatment was shorter in citrulline—than placebo-treated patients, but the difference was not statistically significant. Similar results are shown for the total vasoactive score. However, the patient receiving citrulline did, in fact, show a shorter total duration of vasoactive medication as shown in FIG. 30."}, "[2]": {"assay": "Intravenous citrulline dose escalation safety (adverse effects, hypotension)", "format": "in vivo, human", "method": "The initial goal was to test the safety and pharmacokinetics of three doses of intravenous citrulline in children undergoing surgical repair of specific congenital heart defects. […] An adverse drop in mean arterial pressure was defined as a greater than a twenty percent decrease from baseline. The baseline postoperative mean arterial blood pressure was calculated as the average of mean arterial blood pressure measurements collected every 5 minutes for the 30 minutes immediately preceding the administration of the postoperative dose or infusion."}, "[3]": {"settings": "end of surgery until discontinuation or Hour 48"}}, "data": [{"smiles": "NC(=O)NCCCC(N)C(=O)O", "note": "(centres unmarked) [Citrulline, 2-amino-5-(carbamoylamino)pentanoic acid]", "values": [{"measurement": "Total vasoactive score, Mean ± SD", "setting": "[1]; N = 11", "result": "5.5 ± 10.62"}, {"measurement": "Length of time on vasoactive medications, Diff (CI) placebo vs citrulline", "setting": "[1]; [3]", "result": "3.5 (−7.0, 14.1) hours"}, {"measurement": "Length of time on vasoactive medications, Median", "setting": "[1]; [3]", "result": 1.0, "unit": "h"}, {"measurement": "Length of time on vasoactive medications, Range", "setting": "[1]; [3]", "result": "0.0 to 17.0", "unit": "h"}, {"measurement": "Length of time on vasoactive medications, Mean ± SD", "setting": "[1]; end of surgery until discontinuation or Hour 48, N = 11", "result": "6.3 ± 7.18", "unit": "h"}, {"measurement": "Total vasoactive score, Diff (CI) placebo vs citrulline", "setting": "[1]; in vivo", "result": "5.2 (−7.7, 18.0)"}, {"measurement": "Total vasoactive score, Median", "setting": "[1]; in vivo", "result": 1.1}, {"measurement": "Total vasoactive score, Range", "setting": "[1]; in vivo", "result": "0.0-35.5"}, {"measurement": "adverse side effects", "setting": "[2]; 50 mg/kg IV", "result": "No adverse side effects were noted"}, {"measurement": "adverse side effects", "setting": "[2]; 100 mg/kg IV", "result": "no adverse side effects were noted"}, {"measurement": "adverse effects", "setting": "[2]; IV doses 200, 400, and 600 mg/kg", "result": "no adverse effects were noted"}, {"measurement": "adverse effects including hypotension", "setting": "[2]; any of 50, 100, 150 mg/kg IV", "result": "no adverse effects including hypotension"}, {"measurement": "adverse side effects", "setting": "[2]; bolus 150 mg/kg plus continuous infusion 9 mg/kg/hr", "result": "No adverse side effects were noted"}, {"measurement": "significant adverse events", "setting": "[2]; bolus 150 mg/kg plus infusion 9 mg/kg/hour for 48 hours, 9 patients", "result": "one significant adverse event but it was not related to the use of IV citrulline"}]}]}
